Experimental data: PubChem BioAssay (NCI)
Where “and” joins values, the source holds several entries; their conditions need not be identical. Equal values may be shown once.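 Interpolation was linear, between the two tested concentrations surrounding the appropriate level; five concentrations were tested over 48 hours in 96-well plates. Here, GI50 denotes the concentration required for 50% inhibition of growth. TGI marks complete inhibition of growth.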

Key:
Test in all cases: NCI tumour cell line growth inhibition, 48 h
[1] = tested on: 786-0 renal
[2] = tested on: A498 renal
[3] = tested on: A549 NSCLC
[4] = tested on: ACHN renal
[5] = tested on: CAKI-1 renal
[6] = tested on: CCRF-CEM leukemia
[7] = tested on: COLO 205 colon
[8] = tested on: DLD-1 colon
[9] = tested on: DMS 114 small cell lung
[10] = tested on: DMS 273 small cell lung
[11] = tested on: EKVX NSCLC
[12] = tested on: HCC-2998 colon
[13] = tested on: HCT-116 colon
[14] = tested on: HCT-15 colon
[15] = tested on: HL-60(TB) leukemia
[16] = tested on: HOP-18 NSCLC
[17] = tested on: HOP-62 NSCLC
[18] = tested on: HOP-92 NSCLC
[19] = tested on: HT29 colon
[20] = tested on: IGROV1 ovarian
[21] = tested on: K-562 leukemia
[22] = tested on: KM12 colon
[23] = tested on: KM20L2 colon
[24] = tested on: LOX IMVI melanoma
[25] = tested on: LXFL 529 NSCLC
[26] = tested on: M14 melanoma
[27] = tested on: M19-MEL melanoma
[28] = tested on: MALME-3M melanoma
[29] = tested on: MOLT-4 leukemia
[30] = tested on: NCI-H226 lung
[31] = tested on: NCI-H23 lung
[32] = tested on: NCI-H460 lung
[33] = tested on: NCI-H522 lung
[34] = tested on: OVCAR-3 ovarian
[35] = tested on: OVCAR-4 ovarian
[36] = tested on: OVCAR-5 ovarian
[37] = tested on: OVCAR-8 ovarian
[38] = tested on: RPMI-8226 leukemia
[39] = tested on: RXF 393 renal
[40] = tested on: RXF-631 renal
[41] = tested on: SF-268 CNS
[42] = tested on: SF-295 CNS
[43] = tested on: SF-539 CNS
[44] = tested on: SK-MEL-2 melanoma
[45] = tested on: SK-MEL-28 melanoma
[46] = tested on: SK-MEL-5 melanoma
[47] = tested on: SK-OV-3 ovarian
[48] = tested on: SN12C renal
[49] = tested on: SNB-19 CNS
[50] = tested on: SNB-75 CNS
[51] = tested on: SNB-78 CNS
[52] = tested on: SR leukemia
[53] = tested on: SW-620 colon
[54] = tested on: TK-10 renal
[55] = tested on: U251 CNS
[56] = tested on: UACC-257 melanoma
[57] = tested on: UACC-62 melanoma
[58] = tested on: UO-31 renal
[59] = tested on: XF 498 CNS
[60] = tested on: BT-549 breast
[61] = tested on: DU-145 prostate
[62] = tested on: HS 578T breast
[63] = tested on: MDA-MB-231 breast
[64] = tested on: PC-3 prostate
[65] = tested on: T-47D breast

Work on `CCC[CH2][Sn]([CH2]CCC)([O]C(=O)/C=C/c1ccccc1F)[O]C(=O)/C=C/c1ccccc1F` yielded a GI50 [1] of 384 nM, a TGI [1] of 1170 nM and a GI50 [2] of 1090 nM. The TGI [2] was 2290 nM, the GI50 [3] was 1880 nM and the TGI [3] was 3910 nM. The GI50 [4] was 797 nM, the TGI [4] was 2050 nM and the GI50 [5] was 436 nM. It also gave a TGI [5] of 1790 nM, a GI50 [6] of 139 nM and a TGI [6] of 616 nM. The GI50 [7] was 907 nM, the TGI [7] was 2410 nM and the GI50 [8] was 393 nM. The TGI [8] was 1500 nM, the GI50 [9] was 445 nM and the TGI [9] was 1460 nM. For the same compound, the GI50 [10] was 1160 nM, the TGI [10] was 2930 nM and the GI50 [11] was 1430 nM. The TGI [11] was 2790 nM, the GI50 [12] was 1060 nM and the TGI [12] was 2290 nM. The GI50 [13] was 1050 nM, the TGI [13] was 2520 nM and the GI50 [14] was 740 nM. For the same compound, the TGI [14] was 1950 nM, the GI50 [15] was 536 nM and the TGI [15] was 4870 nM. It also gave a GI50 [16] of 1620 nM, a TGI [16] of 2980 nM and a GI50 [17] of 2120 nM. For the same compound, the TGI [17] was 4710 nM, the GI50 [18] was 415 nM and the TGI [18] was 1370 nM. It also gave a GI50 [19] of 1580 nM, a TGI [19] of 3070 nM and a GI50 [20] of 585 nM. For the same compound, the TGI [20] was 1660 nM, the GI50 [21] was 232 nM and the TGI [21] was 1400 nM. The GI50 [22] was 1380 nM, the TGI [22] was 2720 nM and the GI50 [23] was 1340 nM. The TGI [23] was 2640 nM, the GI50 [24] was 289 nM and the TGI [24] was 906 nM. It also gave a GI50 [25] of 131 nM, a TGI [25] of 304 nM and a GI50 [26] of 873 nM. The TGI [26] was 2220 nM, the GI50 [27] was 891 nM and the TGI [27] was 2780 nM. It also gave a GI50 [28] of 385 nM, a TGI [28] of 1600 nM and a GI50 [29] of 267 nM. It also gave a TGI [29] of 1710 nM, a GI50 [30] of 775 nM and a TGI [30] of 2040 nM. It also gave a GI50 [31] of 198 nM, a TGI [31] of 560 nM and a GI50 [32] of 1640 nM. The TGI [32] was 3370 nM, the GI50 [33] was 79.8 nM and the TGI [33] was 185 nM. It also gave a GI50 [34] of 1070 nM, a TGI [34] of 2310 nM and a GI50 [35] of 1450 nM. The TGI [35] was 2900 nM, the GI50 [36] was 1500 nM and the TGI [36] was 2830 nM. The GI50 [37] was 980 nM, the TGI [37] was 2200 nM and the GI50 [38] was 222 nM. The TGI [38] was 1200 nM, the GI50 [39] was 256 nM and the TGI [39] was 950 nM. The GI50 [40] was 253 nM, the TGI [40] was 972 nM and the GI50 [41] was 526 nM. The TGI [41] was 1840 nM, the GI50 [42] was 1430 nM and the TGI [42] was 2780 nM. For the same compound, the GI50 [43] was 1270 nM, the TGI [43] was 2560 nM and the GI50 [44] was 324 nM. For the same compound, the TGI [44] was 1190 nM, the GI50 [45] was 328 nM and the TGI [45] was 1290 nM. For the same compound, the GI50 [46] was 985 nM, the TGI [46] was 2310 nM and the GI50 [47] was 2040 nM. For the same compound, the TGI [47] was 4480 nM, the GI50 [48] was 1030 nM and the TGI [48] was 2290 nM. It also gave a GI50 [49] of 788 nM, a TGI [49] of 2070 nM and a GI50 [50] of 692 nM. For the same compound, the TGI [50] was 2060 nM, the GI50 [51] was 452 nM and the TGI [51] was 1700 nM. It also gave a GI50 [52] of 305 nM, a TGI [52] of 2100 nM and a GI50 [53] of 205 nM. It also gave a TGI [53] of 479 nM, a GI50 [54] of 898 nM and a TGI [54] of 2030 nM. It also gave a GI50 [55] of 511 nM, a TGI [55] of 1410 nM and a GI50 [56] of 465 nM. It also gave a TGI [56] of 1760 nM, a GI50 [57] of 1170 nM and a TGI [57] of 2590 nM. The GI50 [58] was 775 nM, the TGI [58] was 2060 nM and the GI50 [59] was 258 nM. It also gave a TGI [59] of 892 nM.
In the case of `COc1cccc2c1C(=O)c1c(O)c3c(c(O)c1C2=O)C[C@@](O)(C(=O)CO)C[C@@H]3OC1CC(N2CCOCC2C#N)C(O)C(C)O1` (stereo partly drawn), the GI50 [1] is reported as 0.0534 nM and 0.0331 nM, the TGI [1] is reported as 2.24 nM and 1.51 nM and 4.47 nM and the TGI [2] is reported as 1.04 nM and 0.139 nM. For the same compound, the GI50 [4] was 0.078 nM and 0.023 nM, the TGI [60] was 0.234 nM and 0.23 nM and the TGI [61] was 20 nM. The TGI [11] was 0.75 nM and 0.901 nM, the TGI [12] was 0.208 nM and 0.237 nM and the TGI [18] was 0.614 nM and 0.566 nM. For the same compound, the TGI [62] was 0.0535 nM and 0.221 nM, the TGI [22] was 1.55 nM and 0.377 nM and 2.59 nM and the GI50 [25] was 0.245 nM. For the same compound, the GI50 [26] was 0.0812 nM, the TGI [26] was 0.108 nM and 0.527 nM and the TGI [63] was 0.812 nM. For the same compound, the TGI [33] was 0.411 nM and 0.129 nM, the TGI [64] was 0.124 nM and 1.12 nM and the TGI [39] was 0.0982 nM and 0.0513 nM. The TGI [40] was 2.27 nM and 21.5 nM, the TGI [43] was 0.1 nM and 0.109 nM and the TGI [45] was 0.481 nM and 0.552 nM. The TGI [50] was 0.11 nM and 0.0613 nM, the GI50 [52] was 0.0468 nM and the TGI [65] was 3.27 nM and 5.81 nM. For the same compound, the GI50 [54] was 0.278 nM and 0.374 nM and the TGI [59] was 0.397 nM and 0.282 nM.
For `Cc1nc2c(sc(=S)n2-c2ccccc2)c2nc3ccccc3n12`, the TGI [1] was over 100000 nM, the TGI [4] was over 100000 nM and the TGI [5] was over 100000 nM. For the same compound, the TGI [6] was over 100000 nM, the TGI [7] was over 100000 nM and the TGI [8] was over 100000 nM. It also gave a TGI [9] of over 100000 nM, a TGI [10] of over 100000 nM and a TGI [11] of over 100000 nM. It also gave a TGI [12] of over 100000 nM, a TGI [14] of over 100000 nM and a TGI [15] of over 100000 nM. For the same compound, the TGI [16] was over 100000 nM, the TGI [17] was over 100000 nM and the TGI [19] was over 100000 nM. It also gave a TGI [20] of over 100000 nM, a TGI [21] of over 100000 nM and a TGI [22] of over 100000 nM. It also gave a TGI [24] of over 100000 nM, a TGI [25] of over 100000 nM and a TGI [26] of over 100000 nM. For the same compound, the TGI [27] was over 100000 nM, the TGI [28] was over 100000 nM and the TGI [29] was over 100000 nM. The TGI [30] was over 100000 nM, the TGI [31] was over 100000 nM and the TGI [33] was over 100000 nM. For the same compound, the TGI [34] was over 100000 nM, the TGI [35] was over 100000 nM and the TGI [36] was over 100000 nM. For the same compound, the TGI [37] was over 100000 nM, the TGI [38] was over 100000 nM and the TGI [39] was over 100000 nM. For the same compound, the TGI [40] was over 100000 nM, the TGI [41] was over 100000 nM and the TGI [42] was over 100000 nM. The TGI [43] was over 100000 nM, the TGI [44] was over 100000 nM and the TGI [45] was over 100000 nM. For the same compound, the TGI [47] was over 100000 nM, the TGI [48] was over 100000 nM and the TGI [49] was over 100000 nM. The TGI [50] was over 100000 nM, the TGI [51] was over 100000 nM and the TGI [54] was over 100000 nM. It also gave a TGI [55] of over 100000 nM, a TGI [56] of over 100000 nM and a TGI [57] of over 100000 nM. For the same compound, the TGI [58] was over 100000 nM.
